Measured values reported in patent US12295936B2, “Immunomodulating urea azalides” (Zoetis Services LLC, priority 2020, dated 2025).
Like-named read-outs stand apart in the source and are kept apart here.

Tests used:
[1] = tested on: IL-6; experiment: LPS-stimulated whole bovine blood assay, MSD cytokine detection; format: cell-based; conditions: Bos taurus, LPS-stimulated bovine whole blood; read-out: IL-6 (IC50 μM)
From the text: In order to correlate RNA sequencing data to cytokine changes the whole blood assay was utilized. […] The enhancement result represents an overall stimulation of cytokine levels due to cellular stress or potential toxicity with increasing concentrations of the compound, representing a typical bell shape response curve for immunomodulatory activity.

[2] = tested on: BRD pathogens, M. haemolytica and P. multocida; experiment: MIC screening panel of BRD pathogens (antibacterial / non-antibacterial)
[3] = tested on: TNF-α; experiment: LPS-stimulated whole bovine blood assay, MSD cytokine detection; format: cell-based; conditions: Bos taurus, LPS-stimulated bovine whole blood; read-out: TNF-α (IC50 μM)
[4] = tested on: IL-1β; experiment: as above; format: cell-based; conditions: overstimulation of IL-1β, LPS-stimulated bovine whole blood
[5] = read-out: antibacterial / non-antibacterial (MIC for the BRD pathogens)

| SMILES | IC50 [1] | IC50 [3] | MIC [2, 5] | IL-1β OS of LPS [4] | MIC ([2]; read-out: MIC ≤64 μg/mL for at least one of the bacterial strains (flag * at Ex #)) |
| --- | --- | --- | --- | --- | --- |
| CCCNC[C@]1(O)[C@H](C)O[C@@H](O[C@H]2[C@H](C)[C@@H](O[C@@H]3O[C@H](C)C[C@H](N(C)C(=O)N(C)c4ccccc4)[C@H]3O)[C@](C)(O)C[C@@H](C)CN(CCC)[C@H](C)[C@@H](O)[C@](C)(O)[C@@H](CC)OC(=O)[C@@H]2C)C[C@@]1(C)OC [Example H-102, 1-((2S,3R,4S,6R)-2-(((2R,3S,4R,5R,8R,10R,11R,12S,13S,14R)-2-ethyl-3,4,10-trihydroxy-13-(((2R,4R,5S,6S)-5-hydroxy-4-methoxy-4,6-dimethyl-5-((propylamino)methyl)tetrahydro-2H-pyran-2-yl)oxy)-3,5,8,10,12,14-hexamethyl-15-oxo-6-propyl-1-oxa-6-azacyclopentadecan-11-yl)oxy)-3-hydroxy-6-methyltetrahydro-2H-pyran-4-yl)-1,3-dimethyl-3-phenylurea] | 11 µM | 8 µM | > 64 µg/mL | 8 µM |  |
| CCCNC[C@]1(O)[C@H](C)O[C@@H](O[C@H]2[C@H](C)[C@@H](O[C@@H]3O[C@H](C)C[C@H](N(Cc4ccccc4)C(=O)N(C)c4ccccc4)[C@H]3O)[C@](C)(O)C[C@@H](C)CN[C@H](C)[C@@H](O)[C@](C)(O)[C@@H](CC)OC(=O)[C@@H]2C)C[C@@]1(C)OC [Example H-65, 1-benzyl-1-((2S,3R,4S,6R)-2-(((2R,3S,4R,5R,8R,10R,11R,12S,13S,14R)-2-ethyl-3,4,10-trihydroxy-13-(((2R,4R,5S,6S)-5-hydroxy-4-methoxy-4,6-dimethyl-5-((propylamino)methyl)tetrahydro-2H-pyran-2-yl)oxy)-3,5,8,10,12,14-hexamethyl-15-oxo-1-oxa-6-azacyclopentadecan-11-yl)oxy)-3-hydroxy-6-methyltetrahydro-2H-pyran-4-yl)-3-methyl-3-phenylurea] | 6 µM | 9 µM | > 64 µg/mL | 2 µM |  |
| CCCNC[C@]1(O)[C@H](C)O[C@@H](O[C@H]2[C@H](C)[C@@H](O[C@@H]3O[C@H](C)C[C@H](N(C)C(=O)N(C)c4ncc(Cl)cn4)[C@H]3O)[C@](C)(O)C[C@@H](C)CN[C@H](C)[C@@H](O)[C@](C)(O)[C@@H](CC)OC(=O)[C@@H]2C)C[C@@]1(C)OC [Example H-51, 1-(5-chloropyrimidin-2-yl)-3-((2S,3R,4S,6R)-2-(((2R,3S,4R,5R,8R,10R,11R,12S,13S,14R)-2-ethyl-3,4,10-trihydroxy-13-(((2R,4R,5S,6S)-5-hydroxy-4-methoxy-4,6-dimethyl-5-((propylamino)methyl)tetrahydro-2H-pyran-2-yl)oxy)-3,5,8,10,12,14-hexamethyl-15-oxo-1-oxa-6-azacyclopentadecan-11-yl)oxy)-3-hydroxy-6-methyltetrahydro-2H-pyran-4-yl)-1,3-dimethylurea] | 52 µM | 26 µM | > 64 µg/mL | 40 µM |  |
| CCCNC[C@]1(O)[C@H](C)O[C@@H](O[C@H]2[C@H](C)[C@@H](O[C@@H]3O[C@H](C)C[C@H](N(C)C(=O)N(C)c4nccnn4)[C@H]3O)[C@](C)(O)C[C@@H](C)CN[C@H](C)[C@@H](O)[C@](C)(O)[C@@H](CC)OC(=O)[C@@H]2C)C[C@@]1(C)OC [Example H-56, 1-((2S,3R,4S,6R)-2-(((2R,3S,4R,5R,8R,10R,11R,12S,13S,14R)-2-ethyl-3,4,10-trihydroxy-13-(((2R,4R,5S,6S)-5-hydroxy-4-methoxy-4,6-dimethyl-5-((propylamino)methyl)tetrahydro-2H-pyran-2-yl)oxy)-3,5,8,10,12,14-hexamethyl-15-oxo-1-oxa-6-azacyclopentadecan-11-yl)oxy)-3-hydroxy-6-methyltetrahydro-2H-pyran-4-yl)-1,3-dimethyl-3-(1,2,4-triazin-3-yl)urea] | 6 µM | 79 µM | > 64 µg/mL | 18 µM |  |
| CC[C@H]1OC(=O)[C@H](C)[C@@H](O[C@H]2C[C@@](C)(OC)[C@](O)(CNCC(C)C)[C@H](C)O2)[C@H](C)[C@@H](O[C@@H]2O[C@H](C)C[C@H](N(C)C(=O)N(C)c3ccccc3)[C@H]2O)[C@](C)(O)C[C@@H](C)CN[C@H](C)[C@@H](O)[C@]1(C)O [Example H-24, 1-((2S,3R,4S,6R)-2-(((2R,3S,4R,5R,8R,10R,11R,12S,13S,14R)-2-ethyl-3,4,10-trihydroxy-13-(((2R,4R,5S,6S)-5-hydroxy-5-((isobutylamino)methyl)-4-methoxy-4,6-dimethyltetrahydro-2H-pyran-2-yl)oxy)-3,5,8,10,12,14-hexamethyl-15-oxo-1-oxa-6-azacyclopentadecan-11-yl)oxy)-3-hydroxy-6-methyltetrahydro-2H-pyran-4-yl)-1,3-dimethyl-3-phenylurea] | 30 µM | 23 µM | > 64 µg/mL | 16 µM |  |

Now from value to compound, other results behind:

| IC50 [1] | IC50 [3] | SMILES | MIC [2, 5] | IL-1β OS of LPS [4] | MIC ([2]; read-out: MIC ≤64 μg/mL for at least one of the bacterial strains (flag * at Ex #)) |
| --- | --- | --- | --- | --- | --- |
| 25 µM | 14 µM | CC[C@H]1OC(=O)[C@H](C)[C@@H](O[C@H]2C[C@@](C)(OC)[C@](O)(CN3CCC(F)(F)CC3)[C@H](C)O2)[C@H](C)[C@@H](O[C@@H]2O[C@H](C)C[C@H](N(C)C(=O)N(C)c3ccccc3)[C@H]2O)[C@](C)(O)C[C@@H](C)CN[C@H](C)[C@@H](O)[C@]1(C)O [Example J-17, 1-((2S,3R,4S,6R)-2-(((2R,3S,4R,5R,8R,10R,11R,12S,13S,14R)-13-(((2R,4R,5S,6S)-5-((4,4-difluoropiperidin-1-yl)methyl)-5-hydroxy-4-methoxy-4,6-dimethyltetrahydro-2H-pyran-2-yl)oxy)-2-ethyl-3,4,10-trihydroxy-3,5,8,10,12,14-hexamethyl-15-oxo-1-oxa-6-azacyclopentadecan-11-yl)oxy)-3-hydroxy-6-methyltetrahydro-2H-pyran-4-yl)-1,3-dimethyl-3-phenylurea] |  | 40 µM | < 64 µg/mL |
| 28 µM | 14 µM | CC[C@H]1OC(=O)[C@H](C)[C@@H](O[C@H]2C[C@@](C)(OC)[C@](O)(CN3CC(F)(F)C3)[C@H](C)O2)[C@H](C)[C@@H](O[C@@H]2O[C@H](C)C[C@H](N(C)C(=O)N(C)c3ccccc3)[C@H]2O)[C@](C)(O)C[C@@H](C)CN[C@H](C)[C@@H](O)[C@]1(C)O [Example J-15, 1-((2S,3R,4S,6R)-2-(((2R,3S,4R,5R,8R,10R,11R,12S,13S,14R)-13-(((2R,4R,5S,6S)-5-((3,3-difluoroazetidin-1-yl)methyl)-5-hydroxy-4-methoxy-4,6-dimethyltetrahydro-2H-pyran-2-yl)oxy)-2-ethyl-3,4,10-trihydroxy-3,5,8,10,12,14-hexamethyl-15-oxo-1-oxa-6-azacyclopentadecan-11-yl)oxy)-3-hydroxy-6-methyltetrahydro-2H-pyran-4-yl)-1,3-dimethyl-3-phenylurea] | > 64 µg/mL | 16 µM |  |
| 9 µM | 7 µM | CC[C@H]1OC(=O)[C@H](C)[C@@H](O[C@H]2C[C@@](C)(OC)[C@](O)(CN3CCC(c4ccccc4)CC3)[C@H](C)O2)[C@H](C)[C@@H](O[C@@H]2O[C@H](C)C[C@H](N(C)C(=O)N(C)c3ccccc3)[C@H]2O)[C@](C)(O)C[C@@H](C)CN[C@H](C)[C@@H](O)[C@]1(C)O [Example J-20, 1-((2S,3R,4S,6R)-2-(((2R,3S,4R,5R,8R,10R,11R,12S,13S,14R)-2-ethyl-3,4,10-trihydroxy-13-(((2R,4R,5S,6S)-5-hydroxy-4-methoxy-4,6-dimethyl-5-((4-phenylpiperidin-1-yl)methyl)tetrahydro-2H-pyran-2-yl)oxy)-3,5,8,10,12,14-hexamethyl-15-oxo-1-oxa-6-azacyclopentadecan-11-yl)oxy)-3-hydroxy-6-methyltetrahydro-2H-pyran-4-yl)-1,3-dimethyl-3-phenylurea] | > 64 µg/mL | 3 µM |  |
